Structures can show the parent of a compound that is named as a salt. Where two headings read alike, the source gives them in different places.
Columns and labels:
[1] = system: Vero cells; assay: Cell viability (CellTiter-Glo) of Vero cells; format: cell-based
[2] = system: ZIKV SPH; assay: Autophagy compound library screen, ZIKV SPH titer (TCID50) in C6/36 cells; format: cell-based, Zika virus; conditions: 10 µM compound, MOI 0.1, 96 h, TCID50, ± SEM, three independent trials; for activity at 10 µM: Zika virus, C6/36, read-out: ZIKV SPH Relative Titer in C6/36 Cells
[3] = system: C6/36 cells; format: cell-based, Ae. albopictus
[4] = system: ZIKV SPH; assay: Autophagy compound library screen, ZIKV SPH titer (TCID50) in Vero cells; format: cell-based, Zika virus; conditions: 10 µM compound, MOI 0.1, 40 h, TCID50; ± SEM, three independent trials
[5] = 10 µM compound, 40 h, CellTiter-Glo, ± SEM, three independent trials
[6] = 10 µM compound, 96 h, CellTiter-Glo, ± SEM, three independent trials

| Compound | Vero Viability [1, 5] | ZIKV SPH Relative Titer in C6/36 Cells [2] | C6/36 Viability [3, 6] | ZIKV SPH Relative Titer in Vero Cells [4] | Vero Viability ([1]; 10 µM) | activity at 10 µM [2] [%] | C6/36 Viability ([3]; 10 µM) |
| --- | --- | --- | --- | --- | --- | --- | --- |
| COC(=O)C1=C(C)NC(C)=C([N+](=O)[O-])C1c1ccccc1C(F)(F)F (racemic) [(±)Bay K8644] | 94.0 ± 3% of untreated control | 39.4 ± 10.7% of untreated control | 53 ± 11.1% of untreated control | 34.9 ± 15.2% of untreated control |  |  |  |
| Nc1ncnc2c1nc(Sc1ccc(Cl)cc1)n2[C@@H]1O[C@@H]2COP(=O)([O-])O[C@H]2[C@H]1O.[Na+] [8-CPT-cAMP·Na] | 92.7 ± 0.7% of untreated control | 60.1 ± 18.3% of untreated control | 75 ± 3.7% of untreated control | 107.8 ± 65.3% of untreated control |  |  |  |
| Cl.O=C(NCc1ccncc1)C12CC3C[C@H](C1)CC(c1ccc(Cl)cc1)(C3)C2 [ABC294640·HCl] |  | 26.0 ± 10.8% of untreated control | 32 ± 3.5% of untreated control | 51.7 ± 29.2% of untreated control | 87.7 ± 6.8% of untreated control |  |  |
| N#CC(C#N)=C(N)/C(C#N)=C/c1ccc(O)cc1 [AG112] | 96.7 ± 3.7% of untreated control | 85.5 ± 21.3% of untreated control | 80 ± 5.8% of untreated control | 77.7 ± 38.2% of untreated control |  |  |  |
| NC(=O)c1ncn([C@@H]2O[C@H](CO)[C@@H](O)[C@H]2O)c1N [AICAR] | 90.0 ± 11.1% of untreated control | 252.0 ± 115% of untreated control | 125 ± 16.4% of untreated control | 112.3 ± 32.3% of untreated control |  |  |  |
| CCN(CC)CCCCN1c2ccccc2Oc2ccc(Cl)cc21.Cl [Akt Inhibitor X·HCl] |  | 0.0 ± 0% of untreated control | 7 ± 1.9% of untreated control | 3.5 ± 3.3% of untreated control | 32.3 ± 14.2% of untreated control |  |  |
| COc1ccc(C[C@H]2NC[C@H](O)[C@H]2OC(C)=O)cc1 [Anisomycin] | 12.7 ± 4.3% of untreated control | 0.0 ± 0% of untreated control | 7 ± 0.9% of untreated control | 0.0 ± 0% of untreated control |  |  |  |
| CCCCCCCCCCCCCCC[C@@H](O)[C@H](CO)NC(C)=O [C2-dihydroceramide] |  | 262.1 ± 51.7% of untreated control | 97 ± 5.8% of untreated control | 36.5 ± 3% of untreated control | 101.3 ± 3.7% of untreated control |  |  |
| C=CCNC1=C2C[C@@H](C)C[C@H](OC)[C@H](O)[C@@H](C)/C=C(\C)[C@H](OC(N)=O)[C@@H](OC)/C=C\C=C(/C)C(=O)NC(=CC1=O)C2=O [Compound 17-AAG, 17-AAG] |  | 18.2 ± 11.2% of untreated control | 79 ± 16.4% of untreated control | 36.4 ± 20.8% of untreated control |  |  |  |
| O=c1[nH]c2ccccc2n1C1CCN(CCCC(c2ccc(F)cc2)c2ccc(F)cc2)CC1 [Pimozide] |  |  | 49 ± 3.6% of untreated control |  | 90.0 ± 5.7% of untreated control | 109 ± 22 |  |
| CC1=CC(=O)c2c(O)cccc2C1=O [Plumbagin] |  |  |  |  | 2.0 ± 0% of untreated control | 21.4 ± 17.5 | 49 ± 1.5% of untreated control |
| Oc1ccc(/C=C/c2cc(O)cc(O)c2)cc1 [Resveratrol] |  |  | 81 ± 7.5% of untreated control |  | 87.3 ± 2.3% of untreated control | 155 ± 62 |  |
| C1COC(NC(C2CC2)C2CC2)=N1 [Rilmenidine] |  |  |  |  | 97.0 ± 2% of untreated control | 161 ± 58.1 | 79 ± 8.3% of untreated control |
| c1ccc2c(-c3ccncc3)c[nH]c2c1 [Rockout] |  |  |  |  | 87.7 ± 3.8% of untreated control | 96.2 ± 44.2 | 76 ± 5.2% of untreated control |
| COc1ccc(C2CNC(=O)C2)cc1OC1CCCC1 (stereo not shown) [Rolipram] |  |  |  |  | 91.0 ± 3.2% of untreated control | 215 ± 74.8 | 127 ± 12.1% of untreated control |
| C=C(C)[C@H]1Cc2c(ccc3c2O[C@@H]2COc4cc(OC)c(OC)cc4[C@@H]2C3=O)O1 [Rotenone] | 61.3 ± 7.7% of untreated control |  | 17 ± 5.8% of untreated control |  |  | 0.1 ± 0.1 |  |

| Compound | Vero Viability [1, 5] | ZIKV SPH Relative Titer in C6/36 Cells [2] | C6/36 Viability [3, 6] | ZIKV SPH Relative Titer in Vero Cells [4] | Vero Viability ([1]; 10 µM) | activity at 10 µM [2] [%] | C6/36 Viability ([3]; 10 µM) |
| --- | --- | --- | --- | --- | --- | --- | --- |
| CC(=O)c1c(O)c(C)c(O)c(Cc2c(O)c3c(c(C(=O)/C=C/c4ccccc4)c2O)OC(C)(C)C=C3)c1O [Rottlerin] | 80.7 ± 8.5% of untreated control |  | 40 ± 8.4% of untreated control |  |  | 30.3 ± 16.9 |  |
| Oc1ccc(-c2nc(-c3ccncc3)c(-c3ccc(F)cc3)[nH]2)cc1 [SB202190] |  |  |  |  | 74.3 ± 5.2% of untreated control | 25.9 ± 7.4 | 44 ± 7.9% of untreated control |
| Cn1cc(C2=C(c3ccc(Cl)cc3Cl)C(=O)NC2=O)c2ccccc21 [SB-216763] |  |  | 63 ± 3.6% of untreated control |  | 80.0 ± 9% of untreated control | 54 ± 21.7 |  |
| Oc1c2ccccc2c2c3c(cccc13)N=N2 [SP600125] |  |  |  |  | 66.0 ± 2.1% of untreated control | 50.3 ± 19.8 | 132 ± 9% of untreated control |
| CCN(CC)CCNC(=O)c1c(C)[nH]c(/C=C2\C(=O)Nc3ccc(Cl)cc32)c1C [SU11652] |  |  |  |  | 1.0 ± 0% of untreated control | 0 | 1 ± 0% of untreated control |
| CCCC(CCC)C(=O)O [Sodium Valproate] |  |  | 111 ± 6.2% of untreated control |  | 92.7 ± 1.2% of untreated control | 111 ± 20.7 |  |
| NCCCCNCCCN [Spermidine] |  |  |  |  | 78.0 ± 17% of untreated control | 90.2 ± 57.4 | 70 ± 3% of untreated control |
| CN[C@@H]1C[C@H]2O[C@@](C)([C@@H]1OC)n1c3ccccc3c3c4c(c5c6ccccc6n2c5c31)C(=O)NC4 [Staurosporine] | 14.0 ± 1.5% of untreated control |  | 16 ± 5.3% of untreated control |  |  | 0 |  |
| CC/C(=C(\c1ccccc1)c1ccc(OCCN(C)C)cc1)c1ccccc1 [Tamoxifen citrate] |  |  | 32 ± 11.9% of untreated control |  | 60.7 ± 18.4% of untreated control | 8.2 ± 7.3 |  |
| Cn1nnc2c(C(N)=O)ncn2c1=O [Temozolomide] |  |  |  |  | 104.7 ± 1.9% of untreated control | 219 ± 49.8 | 113 ± 9.2% of untreated control |
| C/C=C(/C)C(=O)O[C@H]1C(C)=C2[C@H]([C@@H]1OC(=O)CCCCCCC)[C@@](C)(OC(C)=O)C[C@H](OC(=O)CCC)[C@@]1(O)[C@H]2OC(=O)[C@@]1(C)O [Thapsigargin] |  |  |  |  | 38.0 ± 10.5% of untreated control | 0 | 23 ± 3.9% of untreated control |
| C[C@H]1CC[C@@]2(OC1)O[C@H]1C[C@H]3[C@@H]4CC[C@@H]5C[C@@H](O[C@@H]6O[C@H](CO)[C@H](O)[C@H](O)[C@H]6O[C@@H]6O[C@H](CO)[C@@H](O)[C@H](O)[C@H]6O)CC[C@]5(C)[C@H]4CC[C@]3(C)[C@H]1[C@@H]2C [Timosaponin A-III] |  |  | 67 ± 3.6% of untreated control |  | 38.7 ± 11.9% of untreated control | 13 ± 5.2 |  |
| Cc1ccc(S(=O)(=O)NC(=O)NN2CCCCCC2)cc1 [Tolazamide] |  |  | 113 ± 7.3% of untreated control |  | 99.0 ± 1.5% of untreated control | 120 ± 33.7 |  |
| COc1ccc(CCN(C)CCCC(C#N)(c2ccc(OC)c(OC)c2)C(C)C)cc1OC (stereo not shown) [Verapamil·HCl] | 87.7 ± 0.9% of untreated control |  | 71 ± 2.9% of untreated control |  |  | 89 ± 40.8 |  |
| Penitrem A |  | 29.8 ± 6.4% of untreated control |  | 34.9 ± 10.4% of untreated control |  |  |  |

From article PMC6356585 (Viruses, 2018)
